Measured values as given in patent publication US20060205682A1, “Antibiotic and combinations of antibiotic and symptomatic relief agent formulations” (priority 2005, published 2006).
Values after ≈ are worked out from the molar mass of the structure shown.

Test: physchem
Conditions: pH 8, aqueous buffer, thermodynamic from solid
Protocol: A 5 ml aliquot of 5% potassium phosphate buffer is added to 500 mg of gamma-cyclodextrin and sonicated until a clear solution is formed. […] The process is repeated with two additional amounts of gamma-cyclodextrin. Known aliquots of each solution are placed in a 2 cm cell and analyzed using a UV-Vis Spectrophotomer between the wavelengths 200-400 nm.

solubility thermodynamic at 30 min: 350 µg/mL (≈ 1210 µM)
SMILES: COc1cc(Cc2cnc(N)nc2N)cc(OC)c1OC [trimethoprim]
